Where two headings read alike, the source gives them in different places.
Experiments:
Supercoiled plasmid = test: In vitro DNA nicking assay; assay type: biochemical, E. coli; settings: 10 μM CuCl2, 3 hours at room temperature (21° C.) in the dark
Method: The capacity of rCAM compounds to cause DNA damage was evaluated using an in vitro DNA nicking assay. Specifically, the double stranded DNA (dsDNA) nicking activity of exemplary rCAM DP41-0012 was compared to CAM compounds bersacapavir and NVR-3-778, and DMSO controls.
Supercoiled plasmid, the substrate for this assay, was purified from E. coli, using a Qiagen miniprep kit. A “master mix” of 3 ng/μl Miniprep DNA, 10 μM CuCl2, 20 mM TrisHCl pH7.5 was prepared. Samples included 99 μl of master mix plus 1 μl of compound or control. Reactions were incubated for 3 hours at room temperature (21° C.) in the dark. Aliquots of the reactions (20 μl) were resolved on a 0.8% TAE agarose gel with 1/20,000 SYBR Safe stain electrophoresed at 80V for 90 minutes. The gel was visualized on a ChemidocMP in fluorescein blot mode.

[1] = biological target: purified capsid protein assembly domain, Cp149 (Hepatitis B virus subtype adyw, UniProt P03147); test: Capsid assembly assay (size exclusion chromatography); assay type: biochemical, HBV; settings: 10 μM Cp149 dimer, 20 μM compound, 24 h at room temperature, versus capsid control
purified capsid protein assembly domain, Cp149, sequence (P03147 1-149): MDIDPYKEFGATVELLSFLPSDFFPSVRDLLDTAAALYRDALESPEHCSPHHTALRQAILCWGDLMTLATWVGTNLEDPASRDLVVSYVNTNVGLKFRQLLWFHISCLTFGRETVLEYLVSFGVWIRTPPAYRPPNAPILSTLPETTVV
Method: Stimulation of HBV virus assembly is a known property of CAM molecules. As structural changes can have unpredictable effects on function, a capsid assembly assay was conducted with exemplary rCAM DP41-0012 to evaluate whether the construct retained CAM activity. Relative peak HBV capsid volume following exposure to the exemplary rCAM was determined in comparison to dimer, DMSO, and capsid controls, along with CAM compounds bersacapavir and NVR-3-778.
To test capsid assembly, samples or controls were incubated for 20 minutes with purified capsid protein assembly domain, Cp149, so that final conditions were 10 μM Cp149 dimer 20 μM compound or control 2% DMSO 50 mM TrisHCl pH 7.5. To this mixture was added an equal volume of 600 mM NaCl 50 mM TrisHCl pH 7.5. Reactions were equilibrated for 24 h at room temperature and the resolved by size exclusion chromatography using a 10/300 Superose6 column running at 0.5 ml/minute. The running buffer for this column was 50 mM TrisHCl 300 mM NaCl. Elution profiles were recorded by absorbance at 280 nm. Integrated capsid peaks eluting between 16 and 20 minutes and dimer peaks eluting between 34 and 39 minutes were reported.

Cp149 dimers = Cp149 dimers (Hepatitis B virus subtype adyw, UniProt P03147); test: Cp149 dimer assembly with rCAM visualized by transmission electron microscopy; assay type: biochemical, HBV; settings: dimer:rCAM 1:5, NaCl 300 mM, overnight at 25° C.
Cp149 dimers, sequence (P03147 1-149): as above
Method: Cp dimers were assembled with HAP-PEG2-CBL and HAP-PEG4-CBL to verify the HAP backbone's ability to bind the dimer-dimer interface. Cp149 dimers were mixed with each rCAM in a 1:5 ratio (dimer:rCAM). Assembly was induced by addition of NaCl (300 mM) followed by incubation overnight at 25° C. Assembly products were visualized via transmission electron microscopy (TEM) (FIG. 10). Assembly in NaCl alone led to normal spherical capsids (FIG. 10A). […] Boume, C., et al., J Virol 82:10262, 2008.

[2] = test system: in vitro transcribed pregenomic HBV RNA (pgRNA); test: pgRNA activity assay by denaturing agarose gel electrophoresis; assay type: biochemical; settings: for RNA signal on gel, free pgRNA: 100 μM; for RNA signal on gel, free pgRNA / RNA bands on gel, free pgRNA: 1% or 10% DMSO; for RNA bands on gel, free pgRNA / pgRNA band on denaturing agarose gel: 900 μM; for pgRNA band on denaturing agarose gel: 1 hour
[3] = test system: in vitro transcribed pregenomic HBV RNA (pgRNA); assay type: biochemical; settings: for effect on pgRNA amplification / RNA transcription (RT-qPCR, Cp gene): either temperature (25° C. or 37° C.)
[4] = 25° C. and 37° C. (both temperature conditions)

## Cn1cc(S(=O)(=O)NCCNC(=O)c2cc(O)c(O)c(O)c2)cc1C(=O)Nc1ccc(F)c(C#N)c1 [DP41-0012, N-(3-cyano-4-fluorophenyl)-1-methyl-4-(N-(2-(3,4,5-trihydroxybenzamido)ethyl)-sulfamoyl)-1H-pyrrole-2-carboxamide]
Supercoiled plasmid
  plasmid DNA form seen on agarose gel (dsDNA nicking activity): DNA band corresponding to the size of a nicked circle
[1]
  relative peak capsid volume: exceeded that of the capsid control

## COC(=O)C1=C(CN2CCN(C(=O)CCOCCOCCOC(=O)CCCc3ccc(N(CCCl)CCCl)cc3)CC2)NC(c2ccccn2)=NC1c1ccc(F)cc1Cl (stereo not drawn) [HAP-PEG2-CBL, Methyl 6-((4-(3-(2-(2-((4-(4-(bis(2-chloroethyl)amino)phenyl)butanoyl)oxy)ethoxy)ethoxy)propanoyl)piperazin-1-yl)methyl)-4-(2-chloro-4-fluorophenyl)-2-(pyridin-2-yl)-1,4-dihydropyrimidine-5-carboxylate]
Cp149 dimers
  assembly products seen by TEM: both spherical capsids, faceted/broken capsids, and flat, aberrant structures
[2]; 37° C.
  RNA signal on gel, free pgRNA: slight reduction in RNA signal
  RNA bands on gel, free pgRNA: almost complete dissipation of RNA bands

## COC(=O)C1=C(CN2CCN(C(=O)CCOCCOCCOCCOCCOC(=O)CCCc3ccc(N(CCCl)CCCl)cc3)CC2)NC(c2ccccn2)=NC1c1ccc(F)cc1Cl (stereo not drawn) [HAP-PEG4-CBL]
Cp149 dimers
  assembly products seen by TEM: floret-shaped, aberrant particles
[2]; 37° C.
  RNA signal on gel, free pgRNA: slight reduction in RNA signal
  RNA bands on gel, free pgRNA: almost complete dissipation of RNA bands

## O=C(Nc1cc(F)c(F)c(F)c1)c1ccc(F)c(S(=O)(=O)N2CCC(O)CC2)c1 [NVR-3-778]
Supercoiled plasmid
  plasmid DNA form seen on agarose gel (dsDNA nicking activity): supercoiled plasmid substrate was detectable

## CN(C)c1nc(N(C)C)nc(N(C)C)n1 [altretamine]
[3]; 900 μM, 1 hour
  effect on pgRNA amplification / RNA transcription (RT-qPCR, Cp gene): does affect RNA transcription

## C[C@H](NS(=O)(=O)c1cc(C(=O)Nc2ccc(F)c(C#N)c2)n(C)c1)C(F)(F)F [bersacapavir]
Supercoiled plasmid
  plasmid DNA form seen on agarose gel (dsDNA nicking activity): supercoiled plasmid substrate was detectable

## O=C(O)CCCc1ccc(N(CCCl)CCCl)cc1 [chlorambucil]
[2]; [4]
  pgRNA band on denaturing agarose gel: completely dissipate RNA
[3]; 900 μM, 1 hour, 25° C.
  reduction in RNA amplification (RT-qPCR, Cp gene): approximately 1 log
[3]; 900 μM, 1 hour, 37° C.
  decrease in RNA levels (RT-qPCR, Cp gene): 4 log

## N.N.[Cl][Pt][Cl] [cisplatin]
[2]; [4]
  pgRNA band on denaturing agarose gel: faster migrating and smeared bands
[3]
  decrease in RNA levels (RT-qPCR, Cp gene): 3 log
  reduction in RNA amplification (RT-qPCR, Cp gene): approximately 1 log

## CO[C@@]12[C@H](COC(N)=O)C3=C(C(=O)C(C)=C(N)C3=O)N1C[C@@H]1N[C@@H]12 [mitomycin C]
[3]; 900 μM, 1 hour
  effect on pgRNA amplification / RNA transcription (RT-qPCR, Cp gene): does affect RNA transcription

## phleomycin
[2]; 37° C.
  pgRNA band on denaturing agarose gel: completely disappeared
[2]; room temperature (25° C.)
  pgRNA band on denaturing agarose gel: reduced in width
[3]; 900 μM, 1 hour
  effect on pgRNA amplification / RNA transcription (RT-qPCR, Cp gene): does not suppress pgRNA amplification appreciably

Reference: patent publication US20260284203A1 (priority 2023, published 2026)
